BindingDB's records for doi:10.1016/j.bioorg.2015.07.005 (Birla Institute of Technology, 2015)

Molecular target: Genome polyprotein (Dengue virus type 2 (strain Thailand/NGS-C/1944), UniProt P14340)
Test: DENV2 Protease Assay
Conditions: pH 8.5
Procedure: To measure the inhibitory activities of the compounds, the DENV2 NS2B-NS3 protease activities were measured in the presence of the compounds using Bz-Nle-Lys-Arg-Arg-AMC as a substrate. The enzyme concentration in the assay was 125 nM, and the substrate concentration was 20 µM in 10 mM Tris-HCl pH 8.5, 20% glycerol, and 1 mM CHAPS. The inhibitor concentrations were 100 µM for the first round and between 3.125 and 400 µM for the compounds 16 and 19 in the second round. Before adding the substrate, the enzyme and the inhibitors were incubated at 37 °C for 15 min. All reactions were performed in 96-well plates with a final volume of 50 µL per each wells using the FLx800 fluorescence microplate reader (excitation = 380 nm; emission = 460 nm).

Genome polyprotein, sequence (P14340 1346-1475 limits assumed): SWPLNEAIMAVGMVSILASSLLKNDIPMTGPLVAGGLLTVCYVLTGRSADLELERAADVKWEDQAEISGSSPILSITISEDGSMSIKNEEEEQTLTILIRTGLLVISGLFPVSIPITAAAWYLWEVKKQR
Genome polyprotein, sequence (P14340 1476-2093 limits assumed): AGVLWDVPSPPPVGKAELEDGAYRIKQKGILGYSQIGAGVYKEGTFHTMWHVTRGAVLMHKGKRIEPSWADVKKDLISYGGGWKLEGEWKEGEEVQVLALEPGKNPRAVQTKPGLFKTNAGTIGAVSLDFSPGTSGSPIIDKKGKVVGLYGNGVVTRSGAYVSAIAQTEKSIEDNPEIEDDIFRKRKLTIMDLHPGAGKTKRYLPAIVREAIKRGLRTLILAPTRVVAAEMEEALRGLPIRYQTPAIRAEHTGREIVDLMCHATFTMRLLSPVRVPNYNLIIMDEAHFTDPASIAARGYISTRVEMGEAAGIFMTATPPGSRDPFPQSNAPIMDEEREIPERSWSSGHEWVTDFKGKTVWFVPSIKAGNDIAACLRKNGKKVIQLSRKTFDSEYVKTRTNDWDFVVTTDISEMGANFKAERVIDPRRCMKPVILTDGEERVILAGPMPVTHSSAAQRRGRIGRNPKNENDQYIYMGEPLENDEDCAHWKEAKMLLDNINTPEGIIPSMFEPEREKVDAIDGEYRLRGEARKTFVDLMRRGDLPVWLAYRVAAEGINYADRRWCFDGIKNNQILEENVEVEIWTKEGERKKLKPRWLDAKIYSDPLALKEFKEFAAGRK

Structure (SMILES)	IC50 [µM]
O=C1c2ccccc2C(=O)N1c1ccc(S(=O)(=O)N2CCCCC2)cc1 [2-(4-(Piperidin-1-ylsulphonyl)phenyl)isoindoline-1,3-dione (5)]	> 100
O=C1c2ccccc2C(=O)N1c1ccc(S(=O)(=O)Nc2ccc([N+](=O)[O-])cc2)cc1 [4-(1,3-Dioxoisoindolin-2-yl)-N-(4-nitrophenyl)benzenesulphonamide (17)]	> 100
CCc1ccc(NS(=O)(=O)c2ccc(N3C(=O)c4ccccc4C3=O)cc2)cc1 [4-(1,3-Dioxoisoindolin-2-yl)-N-(4-ethylphenyl)benzenesulphonamide (16)]	48.2
Cc1ccccc1NS(=O)(=O)c1ccc(N2C(=O)c3ccccc3C2=O)cc1 [4-(1,3-Dioxoisoindolin-2-yl)-N-o-tolylbenzenesulphonamide (13)]	> 100
O=C1c2ccccc2C(=O)N1c1ccc(S(=O)(=O)Nc2cccc3ccccc23)cc1 [4-(1,3-Dioxoisoindolin-2-yl)-N-(naphthalen-1-yl)benzenesulphonamide (19)]	122
CN1CCN(S(=O)(=O)c2ccc(N3C(=O)c4ccccc4C3=O)cc2)CC1 [2-(4-(4-Methylpiperazin-1-ylsulphonyl)phenyl)isoindoline-1,3-dione (6)]	> 100
CN(C)S(=O)(=O)c1ccc(N2C(=O)c3ccccc3C2=O)cc1 [4-(1,3-Dioxoisoindolin-2-yl)-N,N-dimethyl benzenesulphonamide (2)]	> 100
S=C(Nc1ccc(C(c2c[nH]c3ccccc23)c2c[nH]c3ccccc23)cc1)Nc1cccc(Br)c1	> 100
COc1cccc(NS(=O)(=O)c2ccc(N3C(=O)c4ccccc4C3=O)cc2)c1 [4-(1,3-Dioxoisoindolin-2-yl)-N-(3-methoxyphenyl)benzenesulphonamide (9)]	> 100
O=C1c2ccccc2C(=O)N1c1ccc(S(=O)(=O)Nc2ccccc2O)cc1 [4-(1,3-Dioxoisoindolin-2-yl)-N-(2-hydroxyphenyl)benzenesulphonamide (8)]	> 100
COc1ccc(NS(=O)(=O)c2ccc(N3C(=O)c4ccccc4C3=O)cc2)cc1 [4-(1,3-Dioxoisoindolin-2-yl)-N-(4-methoxyphenyl)benzenesulphonamide (10)]	> 100
Cc1cccc(NS(=O)(=O)c2ccc(N3C(=O)c4ccccc4C3=O)cc2)c1 [4-(1,3-Dioxoisoindolin-2-yl)-N-m-tolylbenzenesulphonamide (14)]	> 100

Further lines, results first:

IC50 [µM]	Structure (SMILES)
> 100	Cc1ccc(NS(=O)(=O)c2ccc(N3C(=O)c4ccccc4C3=O)cc2)cc1 [4-(1,3-Dioxoisoindolin-2-yl)-N-p-tolylbenzenesulphonamide (15)]
> 100	NS(=O)(=O)c1ccc(N2C(=O)c3ccccc3C2=O)cc1 [4-(1,3-Dioxoisoindolin-2-yl)benzenesulphonamide (1)]
> 100	O=C1c2ccccc2C(=O)N1c1ccc(S(=O)(=O)Nc2cccc(Cl)c2)cc1 [N-(3-chlorophenyl)-4-(1,3-dioxoisoindolin-2-yl)benzenesulphonamide (11)]
> 100	O=C(O)c1ccc(NS(=O)(=O)c2ccc(N3C(=O)c4ccccc4C3=O)cc2)cc1 [4-(4-(1,3-Dioxoisoindolin-2-yl)phenylsulphonamido)benzoic acid (18)]
> 100	O=C1c2ccccc2C(=O)N1c1ccc(S(=O)(=O)NCCc2ccccc2)cc1 [4-(1,3-Dioxoisoindolin-2-yl)-N-phenethylbenzenesulphonamide (20)]
> 100	O=C1c2ccccc2C(=O)N1c1ccc(S(=O)(=O)Nc2ccc(Cl)cc2)cc1 [N-(4-chlorophenyl)-4-(1,3-dioxoisoindolin-2-yl)benzenesulphonamide (12)]
> 100	O=C1c2ccccc2C(=O)N1c1ccc(S(=O)(=O)Nc2ccccc2)cc1 [4-(1,3-Dioxoisoindolin-2-yl)-N-phenylbenzenesulphonamide (7)]
